This is an account of results in publication PMC7985170, “Marine Peptide-N6NH2 and Its Derivative-GUON6NH2 Have Potent Antimicrobial Activity Against Intracellular Edwardsiella tarda in vitro and in vivo” (Frontiers in Microbiology, 2021).

Molecules are shown by their SMILES. Values after ≈ are worked out from the molar mass of the structure shown. Where a SMILES comes first, the peptide text is derived from it. Bridges are numbered along the chain shown (N, C = ends).

Series [1] deals with E. coli CVCC1515. In kind it is cell-based, Escherichia coli. Here is the method: (§1) The antimicrobial activity of peptides was determined by the microbroth dilution method ([Zhang et al., 2014]). The bacterial strains were incubated in Mueller-Hinton (MH) medium at 28°C or 37°C overnight. Bacteria (1 × 10^5 CFU/mL) were added into 96-well plates, followed by the addition of serial dilutions of peptides (from 0.0625 to 128 μg/mL). The plates were incubated at 37°C for 18–24 h. The minimal inhibitory concentration (MIC) value was determined as the lowest peptide concentration at which no bacterial growth was observed.

In series [2] the test system is E. coli CVCC25922. In kind it is cell-based, Escherichia coli. As for the experimental part:
as §1

Series [3] concerns S. typhimurium ATCC14028. In kind it is cell-based, Salmonella typhimurium. Here is the method: as §1
The format of series [4] is cell-based, Streptococcus enteritidis. Here is the method: as §1
Series [5] deals with Edwardsiella tarda. In kind it is cell-based. Here is the method: as §1
Series [6] has as its system Escherichia coli CVCC195. Type of series: cell-based. As for the experimental part:
as §1

Series [7] relates to Salmonella pullorum CVCC1802. Type of series: cell-based. Here is the method: as §1
The test system of series [8] is Salmonella typhimurium CVCC533. Type of series: cell-based. The following applies: murium CVCC533. As for the experimental part:
as §1

Series [9] concerns Staphylococcus aureus ATCC43300. Type of series: cell-based. Here is the method: as §1
Series [10] relates to Staphylococcus hyicus 437-2. Type of series: cell-based. Here is the method:
as §1

The test system of series [11] is S. pullorum CVCC1789. In kind it is cell-based, Salmonella pullorum. Here is the method:
as §1

Series [12] deals with S. aureus ATCC25923. Type of series: cell-based, Staphylococcus aureus. As for the experimental part:
as §1

Series [13] relates to S. aureus ATCC546. Type of series: cell-based, Staphylococcus aureus. Here is the method:
as §1

Series [14] concerns S. hyicus 15095. In kind it is cell-based, Staphylococcus hyicus. As for the experimental part: as §1
Series [15] has as its system Gram-negative and Gram-positive bacteria (ALL). Briefly: Geometric mean of MICs and therapeutic index. In kind it is cell-based. The following applies: for GM ALL: geometric mean (GM) of MICs, all strains; for TI ALL: therapeutic index (TI), cell selectivity. As for the experimental part: as §1
(§2) The geometric mean (GM) of MICs of peptides against Gram-negative and Gram-positive bacteria was calculated, and the result was shown in Table 3. […] For Gram-negative bacteria, the TI value of GUON6NH2 (53.33) was very close to N6NH2 (58.18), while for positive bacteria, the TI value of GUON6NH2 (12.8) was slightly higher than that of N6NH2 (12.31), indicating their huge therapeutic potential. For Gram-positive bacteria, DN6NH2 had the highest TI value and the best therapeutic potential.

Series [16] concerns Gram-negative bacteria. Put plainly: Geometric mean of MICs and therapeutic index. The following applies: for GM Gram-negative bacteria: geometric mean (GM) of MICs against Gram-negative bacteria; for TI Gram-negative bacteria: therapeutic index (TI), cell selectivity. Type of series: cell-based. Here is the method: as §1, §2
Series [17] concerns Gram-positive bacteria. Briefly: Geometric mean of MICs and therapeutic index. In kind it is cell-based. The following applies: for GM Gram-positive bacteria: geometric mean (GM) of MICs against Gram-positive bacteria; for TI Gram-positive bacteria: therapeutic index (TI), cell selectivity. Here is the method:
as §1, §2

The subject of series [18] is murine erythrocytes. Type of series: cell-based, mouse. Here is the method: The hemolysis of peptides was evaluated by determining the amount of hemoglobin that was released from fresh mouse erythrocytes ([Flamm et al., 2019]). The blood cells were washed three times with 10 mM PBS (pH 7.4) and centrifuged for 10 min (1,500 rpm). Erythrocyte solution (8%, v/v) was mixed with peptide solutions (1:1) and incubated for 1 h at 37°C. The mixture was then centrifuged for 5 min (1,500 rpm), and the absorbance of supernatants was measured at 540 nm. Values of 0 and 100% hemolysis were determined in PBS and 0.1% triton X-100, respectively. The hemolysis of peptides was calculated using the following formula: Hemolysis (%) = [(Abs treated sample – Abs negative control)/(Abs positive control – Abs negative control)] × 100.

The subject of series [19] is LPS. Briefly: LPS binding, BODIPY-TR-cadaverine (BC) probe displacement. The following applies: 0.5 μM LPS, 5 μM BC, Tris buffer pH 7.4; peptides 0.049 to 50 μM. As for the experimental part:
The BODIPY’-TR-cadaverine (BC) probe was used to determine the ability of peptides to bind to LPS ([Wang et al., 2020]). 0.5 μM LPS was incubated with 5 μM BC in […] Tris buffer (pH 7.4) for 4 h at 37°C. Subsequently, the peptides were added into the mixture and the final concentrations of peptides ranged from 0.049 to 50 μM. Ampicillin was used as the negative control. Changes in fluorescence were measured by a fluorescence spectrophotometry at room temperature (excitation/emission, 580/620 nm).

The subject of series [20] is inner membrane of E. tarda. Briefly: Inner membrane penetration, PI staining by flow cytometry. In kind it is cell-based, Edwardsiella tarda. The following applies: 1× MIC, 5–30 min at 37°C, 1 × 10^8 CFU/mL. As for the experimental part:
Mid-log phase E. tarda cells (1 × 10^8 CFU/mL) were incubated with or without 1× MIC peptides solutions at 37°C for 5, 15, and 30 min, respectively. After washing twice with PBS, bacterial cells were then incubated with 50 μg/mL propidium iodide (PI) for 15 min and analyzed using a FACS Calibur Flow Cytometer (BD, United States) ([Stearns-Kurosawa et al., 2011]).
(A flow cytometer gives signals particle by particle.)

Series [21] deals with E. tarda. Put plainly: SEM and TEM morphology. The following applies: 4× MIC, 2 h. Type of series: cell-based, Edwardsiella tarda. As for the experimental part: To further characterize the bactericidal effects of the peptides, scanning electron microscopy (SEM) and transmission electron microscopy (TEM) were used to visualize morphological changes ([Yang et al., 2019]). E. tarda was cultured to logarithmic growth stage (10^8 CFU/mL) and diluted with 0.01 M PBS (pH 7.4) to OD600 nm = 1. E. tarda cells were treated with 4× MIC peptides at 37°C for 2 h and the untreated cells were used as the control. Briefly, after centrifugation, the bacterial cells were washed three times with 0.1 M PBS (pH 7.2) and fixed overnight at 4°C with 2.5% glutaraldehyde. After washing again, the cells were fixed with 1% osmium tetroxide (OsO4) for 2 h and dehydrated in a graded ethanol series (50%–70%–85%–95% × 2–100%, × 2) for 15 min, respectively. The samples were then dried by CO2, sputtered with gold-palladium, and observed on a QUANTA200 SEM (FEI, Philips, Netherlands).
E. tarda cells were treated peptides before fixation as described above. The bacteria were washed with 0.01 M PBS (pH 7.4) for five times, 7 min each time, and fixed with 1% osmium acid buffer (4°C) for 1 h. After dehydration with a graded acetone series (30%–50%–70%–85%–95%–100% × 3), the cells were immersed in mixtures of acetone and resin (3:1, 1:1 and 1:3, respectively) for 40 min and in a pure epoxy resin overnight. The samples were then embedded in embedding medium and polymerized at 45°C for 3 h and at 65°C for 24 h, respectively. The sections were prepared using an ultramicrotome, stained with 1% uranyl acetate, and visualized by a JEM1400 (JEDL, Tokyo, Japan).

Take `CC(C)[C@H]1NC(=O)CNC(=O)[C@@H](CC(N)=O)NC(=O)[C@@H](CCCNC(=N)N)NC(=O)[C@@H](Cc2ccc(O)cc2)NC(=O)[C@@H](C(C)C)NC(=O)[C@H](NC(=O)[C@H](NC(=O)[C@@H](CC(N)=O)NC(=O)[C@@H](Cc2c[nH]c3ccccc23)NC(=O)[C@@H](C)NC(=O)[C@@H](Cc2ccccc2)NC(=O)CN)C(C)C)CSSC[C@H](C(=O)N[C@H](Cc2c[nH]cn2)C(=O)N[C@H](CCCNC(=N)N)C(=O)N[C@H](CCCNC(=N)N)C(=O)N[C@H](C)C(=O)N[C@H](CC(N)=O)C(N)=O)NC(=O)[C@@H](C(C)C)NC(=O)[C@@H](CCCNC(=N)N)NC1=O` [DN6NH2]: the MIC in [1] worked out at 4 µg/mL (≈ 1.62 µM); in series [2], 8 µg/mL (≈ 3.23 µM); in series [3], 8 µg/mL (≈ 3.23 µM); in series [4], 2 µg/mL (≈ 0.808 µM); in series [5], 8 µg/mL (≈ 3.23 µM); in [6] it was 8 µg/mL (≈ 3.23 µM). The minimal inhibitory concentration (MIC) in series [7] came to 8 µg/mL (≈ 3.23 µM); in series [8], 16 µg/mL (≈ 6.46 µM); in series [9], 4 µg/mL (≈ 1.62 µM); in [10], 8 µg/mL (≈ 3.23 µM); in [11], 16 µg/mL (≈ 6.46 µM); in [12], 8 µg/mL (≈ 3.23 µM). In addition, the results for the MIC in series [13] and in series [14] were 16 µg/mL (≈ 6.46 µM) and 4 µg/mL (≈ 1.62 µM), respectively. In series [15], the “GM ALL” value is 8.13 µg/mL. Besides, the “TI ALL” value in series [15] is 31.49. Further, the “GM Gram-negative bacteria” value in series [16] stood at 8.2 µg/mL. Moreover, the “TI Gram-negative bacteria” value in series [16] stood at 31.22. Besides, the “GM Gram-positive bacteria” value in [17] is 8 µg/mL. Besides, the “TI Gram-positive bacteria” value in series [17] was found to be 32. Besides, the MHC in [18] was above 128 µg/mL. Moreover, in series [19], the “ability to bind to LPS (BC probe displacement)” value (shortened to “ability to bind to LPS”) is reported as “V112N6NH2 > GUON6NH2 > N6NH2 > DN6NH2 > N6PNH2”. For the same compound, the “penetration rate (PI-stained cells)” value in [20] is recorded as 1.3–16.1%. Moreover, the “morphological changes by SEM” value in series [21] is “no significant change in the bacterial cell structures”.

Regarding `CC(C)[C@@H]1NC(=O)CNC(=O)[C@H](CC(N)=O)NC(=O)[C@H](CCCNC(=N)N)NC(=O)[C@H](Cc2ccc(O)cc2)NC(=O)[C@H](C(C)C)NC(=O)[C@@H](NC(=O)[C@@H](NC(=O)[C@H](CC(N)=O)NC(=O)[C@H](Cc2c[nH]c3ccccc23)NC(=O)[C@H](C)NC(=O)[C@H](Cc2ccccc2)NC(=O)CN)C(C)C)CSSC[C@@H](C(=O)N[C@@H](Cc2c[nH]cn2)C(=O)N[C@@H](CCCNC(=N)N)C(=O)N2CCC[C@H]2C(=O)N[C@@H](C)C(=O)N[C@@H](CC(N)=O)C(N)=O)NC(=O)[C@H](C(C)C)NC(=O)[C@H](CCCNC(=N)N)NC1=O` [N6PNH2] (H-GFAWNVCVYRNGVRVCHRPAN-NH2; disulfide 7-16 (inferred); N-terminus assumed), the MIC amounted to 4 µg/mL (≈ 1.66 µM) in series [1]; 8 µg/mL (≈ 3.31 µM) in series [2]; 16 µg/mL (≈ 6.62 µM) in series [3]; 2 µg/mL (≈ 0.828 µM) in series [4]; 32 µg/mL (≈ 13.2 µM) in [5]; 8 µg/mL (≈ 3.31 µM) in series [6]. Further, the MIC in series [7] is 8 µg/mL (≈ 3.31 µM); in [8], 32 µg/mL (≈ 13.2 µM); in [9], above 64 µg/mL; in [10], above 64 µg/mL; in series [11], 16 µg/mL (≈ 6.62 µM); in [12], above 64 µg/mL. The MIC in series [13] is above 64 µg/mL; in [14] it was 64 µg/mL (≈ 26.5 µM). Moreover, the “GM ALL” value in series [15] came to 47.33 µg/mL. In addition, in [15], the “TI ALL” value came out at 5.41. Moreover, the “GM Gram-negative bacteria” value in series [16] is 13.4 µg/mL. In addition, in series [16], the “TI Gram-negative bacteria” value was determined as 19.1. Further, in series [17], the “GM Gram-positive bacteria” value worked out at 115.2 µg/mL. In series [17], the “TI Gram-positive bacteria” value turned out to be 2.22. Besides, in series [18], the MHC was above 128 µg/mL. In addition, the “ability to bind to LPS” value in [19] is “V112N6NH2 > GUON6NH2 > N6NH2 > DN6NH2 > N6PNH2”. Besides, the “penetration rate (PI-stained cells)” value in series [20] is given as 0.42–2.20%.

For `CC1(C)S[C@@H]2[C@H](NC(=O)[C@H](N)c3ccccc3)C(=O)N2[C@H]1C(=O)O` [ampicillin, Ampicillin, reference compound], in series [19], the “ability to bind to LPS” value is “did not replace BC probe to bind to LPS”.

One may read the MIC as the lowest concentration found to suppress growth. Low readings indicate greater potency, high ones weaker potency.
